Measured values as given in US20010044445A1, “AZOLE INHIBITORS OF CYTOKINE PRODUCTION” (priority 1999, published 2001).

How the values were obtained:
[1] = system: Human peripheral blood mononuclear cells; test: Human Concanavalin-A Proliferation Assay (Con HU Assay); type: cell-based; conditions: concanavalin-A stimulated human PBMC; for inhibition at 10 µM / IC50 / inhibition at 100 µM / inhibition at 1 µM: Homo sapiens, PBMC; for inhibition at 10 µM / inhibition at 100 µM / inhibition at 1 µM: 72 h, read-out: % Inhibition of proliferation (at concentrations of 1,10, or 100 μm); for inhibition at 10 µM: concentration 10 μm (in parentheses in the cell); for IC50: tritiated thymidine; for inhibition at 100 µM: concentration 100 μm (in parentheses in the cell)
How it was run: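 Histopaque-isolated human PBMC (50,000/well) were pre-incubated 15 min with compounds, then stimulated with concanavalin-A at 2.5 μg/ml final for 3 days at 37 °C, 5% CO2. Proliferation measured by 6 h pulse with 0.5 μCi/well [3H]thymidine and beta counting.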

[2] = concentration 1 μm (in parentheses in the cell), 3 days

Structure (SMILES)	inhibition at 10 µM ([1]; 3 days)	IC50 [1]	melting point	inhibition at 100 µM ([1]; 3 days)	inhibition at 1 µM [1, 2]	% Inhibition of proliferation (at concentrations of 1,10, or 100 μm) [1, 2]
O=C(Nc1ccc(-n2nc(C(F)(F)F)cc2C(F)(F)F)cc1)c1c(F)c(F)cc(F)c1F [Example 234, N-[4-[3,5-bis(trifluoromethyl)-1H-pyrazol-1-yl]phenyl]-2,3,5,6-tetrafluorobenzamide]	99%	61 nM	235 to 237 °C	–	–	–
FC(F)(F)c1cc(C(F)(F)F)n(-c2ccc(/C=C/c3ccccc3Cl)cc2)n1 [Example 154, (E)-1-[4-[2-(2-chlorophenyl)ethenyl]phenyl]-3,5-bis(trifluoromethyl)-1H-pyrazole]	52%	3820 nM	81 to 82 °C	–	–	–
Cc1ccc([N+](=O)[O-])c(C(=O)Nc2ccc(-n3nc(C(F)(F)F)cc3C(F)(F)F)cc2)c1 [Example 237, N-[4-[3,5-bis(trifluoromethyl)-1H-pyrazol-1-yl]phenyl]-5-methyl-2-nitrobenzamide]	–	368 nM	188 to 189 °C	100%	–	–
COc1c(C(=O)Nc2ccc(-n3nc(C(F)(F)F)cc3C(F)(F)F)cc2)csc1Cl [Example 267, N-[4-[3,5-bis(trifluoromethyl)-1H-pyrazol-1-yl]phenyl]-5-chloro-4-methoxy-3-thiophenecarboxamide]	–	–	119 to 120 °C	–	38%	–
O=C(Nc1ccc(-n2nc(C(F)(F)F)cc2C(F)(F)F)cc1)c1ccsc1 [Example 239, N-[4-[3,5-bis(trifluoromethyl)-1H-pyrazol-1-yl]phenyl]-3-thiophenecarboxamide]	55%	–	239 to 240 °C	–	–	–
CC(C)(C)OC(=O)N1CCCC1C(=O)Nc1ccc(-n2nc(C(F)(F)F)cc2C(F)(F)F)cc1 (stereo not drawn) [Example 246, 1,1-Dimethylethyl 2-[[[4-[3,5-bis(trifluoromethyl)-1H-pyrazol-1-yl]phenyl]amino]carbonyl]-1-pyrrolidinecarboxylate]	–	–	70 to 72 °C	–	47%	–
Cn1cccc1C(=O)Nc1ccc(-n2nc(C(F)(F)F)cc2C(F)(F)F)cc1 [Example 248, N-[4-[3,5-bis(trifluoromethyl)-1H-pyrazol-1-yl]phenyl]-1-methyl-1H-pyrrole-2-carboxamide]	100%	143 nM	148 to 149 °C	–	–	–
O=C(Nc1ccc(-n2nc(C(F)(F)F)cc2C(F)(F)F)cc1)c1ccc(O)c(O)c1 [Example 181, N-[4-[3,5-bis(trifluoromethyl)-1H-pyrazol-1-yl]phenyl]-3,4-dihydroxybenzamide]	100%	2240 nM	233 to 235 °C	–	–	–
O=C(Nc1ccc(-n2nc(C(F)(F)F)cc2C(F)(F)F)c(C(F)(F)F)c1)c1ccc(Cl)cc1 [Example 271, N-[4-[3,5-bis(trifluoromethyl)-1H-pyrazol-1-yl]-3-(trifluoromethyl)phenyl]-4-chlorobenzamide]	–	–	65 to 67 °C	–	14%	–
CS(=O)(=O)c1ccc(C(=O)Nc2ccc(-n3nc(C(F)(F)F)cc3C(F)(F)F)cc2)c(Cl)c1 [Example 207, N-[4-[3,5-bis(trifluoromethyl)-1H-pyrazol-1-yl]phenyl]-2-chloro-4-(methylsulfonyl)benzamide]	100%	372 nM	219 to 220 °C	–	–	–
Cc1nnsc1C(=O)Nc1ccc(-n2nc(C(F)(F)F)cc2C)cc1 [Example 282, 4-methyl-N-[4-[5-methyl-3-(trifluoromethyl)-1H-pyrazol-1-yl]phenyl]-1,2,3-thiadiazole-5-carboxamide]	–	248 nM	51 to 53 °C	100%	–	–
O=C(Nc1ccc(-n2nc(C(F)(F)F)cc2C(F)(F)F)cc1)c1ccc(Cl)cc1F [Example 296, N-(4-(3,5-bis(trifluoromethyl)-1H-pyrazol-1-yl)phenyl)-4-chloro-2-fluorobenzamide]	–	44 nM	156 to 158 °C	–	–	–
N#Cc1cccc(C(=O)Nc2ccc(-n3nc(C(F)(F)F)cc3C(F)(F)F)cc2)c1 [Example 137, N-[4-[3,5-bis(trifluoromethyl)-1H-pyrazol-1-yl]phenyl]-3-cyanobenzamide]	–	120 nM	162 to 163 °C	98%	–	–
O=C(Nc1ccc(-n2nc(C(F)(F)F)cc2C(F)(F)F)cc1)c1cc(Cl)nc(Cl)c1 [Example 269, N-[4-[3,5-bis(trifluoromethyl)-1H-pyrazol-1-yl]phenyl]-2,6-dichloro-4-pyridinecarboxamide]	99%	392 nM	215 to 216 °C	–	–	–
Cc1c(C(=O)Nc2ccc(-n3nc(C(F)(F)F)cc3C(F)(F)F)cc2)cccc1[N+](=O)[O-] [Example 15, N-[4-[3,5-bis(trifluoromethyl)-1H-pyrazol-1-yl]phenyl]-2-methyl-3-nitrobenzamide]	–	274 nM	194 to 195 °C	99%	–	–
O=C(Nc1ccc(-n2nc(C(F)(F)F)cc2C(F)(F)F)cc1)c1ccc(Cl)s1 [Example 253, N-[4-[3,5-bis(trifluoromethyl)-1H-pyrazol-1-yl]phenyl]-5-chloro-2-thiophenecarboxamide]	94%	447 nM	182 to 184 °C	–	–	–
O=C(Nc1ccc(-n2nc(C(F)(F)F)cc2C(F)(F)F)cc1F)c1ccc(F)cc1F [Example 272, N-[4-[3,5-bis(trifluoromethyl)-1H-pyrazol-1-yl]-2-fluorophenyl]-2,4-difluorobenzamide]	–	–	66 to 67 °C	–	10%	–
O=C(Nc1ccc(F)cc1)Nc1ccc(-n2nc(C(F)(F)F)cc2C(F)(F)F)cc1 [Example 32, N-[4-[3,5-bis(trifluoromethyl)-1H-pyrazol-1-yl]phenyl]-N′-(4-fluorophenyl)urea]	–	8440 nM	201 to 202 °C	100%	–	–
COc1ccc(C(=O)Nc2ccc(-n3nc(C(F)(F)F)cc3C(F)(F)F)cc2)cc1 [Example 71, N-[4-[3,5-bis(trifluoromethyl)-1H-pyrazol-1-yl]phenyl]-4-methoxybenzamide]	87%	544 nM	205 to 207 °C	–	–	–
O=C(Cc1ccc(Cl)cc1)Nc1ccc(-n2nc(C(F)(F)F)cc2C(F)(F)F)cc1 [Example 169, N-[4-[3,5-bis(trifluoromethyl)-1H-pyrazol-1-yl]phenyl]-4-chlorobenzeneacetamide]	–	–	122 to 124 °C	–	2%	–
N#Cc1cc(C(F)(F)F)nn1-c1ccc(NC(=O)c2ccccc2Cl)cc1 [Example 350, 2-chloro-N-(4-(5-cyano-3-(trifluoromethyl)-1H-pyrazol-1-yl)phenyl)benzamide]	–	240 nM	162 to 163 °C	–	–	–
CC(C(=O)Nc1ccc(-n2nc(C(F)(F)F)cc2C(F)(F)F)cc1)c1ccc(C(=O)c2cccs2)cc1 (stereo not drawn) [Example 178, N-[4-[3,5-bis(trifluoromethyl)-1H-pyrazol-1-yl]phenyl]-α-methyl-4-(2-thienylcarbonyl)benzeneacetamide]	–	–	< 100 °C	–	–	14(1) %
COC1CCCC(C(=O)Nc2ccc(-n3nc(C(F)(F)F)cc3C(F)(F)F)cc2)C1 (stereo not drawn) [Example 11, N-[4-[3,5-bis(trifluoromethyl)-1H-pyrazol-1-yl]phenyl]-3-methoxycyclohexanecarboxamide]	100%	376 nM	145 to 147 °C	–	–	–
